# Assay results taken from patent US20170121315A1, “HETEROBICYCLICALLY SUBSTITUTED 4-OXOBUTANE ACID DERIVATIVES AND USE THEREOF” (priority 2014, published 2017).
# pIC50: −log10 of the molar value.
# What was measured:
# Assay type in all cases: biochemical
# [1] = target: T1, human macrophage elastase (HME/hMMP-12) (Homo sapiens, UniProt P39900); assay: In vitro HME inhibition test (standard or high-sensitivity); details: in some cases mean values, rounded to two significant figures
# T1 construct: purchased R&D Systems 917-MP
# T1 sequence (P39900 106-470): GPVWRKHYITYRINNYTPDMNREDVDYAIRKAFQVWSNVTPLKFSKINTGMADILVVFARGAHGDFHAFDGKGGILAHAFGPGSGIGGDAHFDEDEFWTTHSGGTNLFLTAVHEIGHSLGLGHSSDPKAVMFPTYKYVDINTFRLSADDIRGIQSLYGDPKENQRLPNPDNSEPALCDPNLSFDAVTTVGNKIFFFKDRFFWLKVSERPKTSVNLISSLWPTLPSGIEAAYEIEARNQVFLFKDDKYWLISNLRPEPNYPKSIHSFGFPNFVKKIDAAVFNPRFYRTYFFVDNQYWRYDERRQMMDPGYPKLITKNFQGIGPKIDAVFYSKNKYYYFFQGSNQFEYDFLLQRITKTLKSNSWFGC
# In short: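 Autoactivated HME (0.5 nM; high-sensitivity format 0.05 nM, ~16 h) with 5 μM quenched Mca-PLGLEEA-Dap(Dnp)-NH2 substrate in HEPES pH 7.4, NaCl, CaCl2, ZnCl2, EDTA, Brij buffer, 2 h at 37° C. Fluorescence at ex 323/em 393 nm; IC50 from signal versus concentration.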
# MMP-7 = target: T2, MMP-7 (Homo sapiens, UniProt P09237); assay: In vitro MMP-7 inhibition test; details: human MMP-7
# T2 construct: purchased R&D Systems 907-MP
# T2 sequence (P09237 95-267): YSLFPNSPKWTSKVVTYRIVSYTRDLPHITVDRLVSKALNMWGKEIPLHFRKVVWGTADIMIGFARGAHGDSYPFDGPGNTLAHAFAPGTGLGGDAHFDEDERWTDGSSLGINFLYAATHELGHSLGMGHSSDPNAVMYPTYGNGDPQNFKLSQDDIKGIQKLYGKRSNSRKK
# From the text: (§1) The MMP-mediated amidolytic cleavage of a suitable peptide substrate leads to an increase in fluorescent light here too. The signal intensity of the fluorescent light is directly proportional to the enzyme activity. The active concentration of a test compound at which half the enzyme is inhibited (50% signal intensity of the fluorescent light) is reported as the IC50 value.
# (§2) Recombinant MMP-7 (from R&D Systems, 907-MP) is chemically activated in accordance with the manufacturer's instructions using APMA. 1 μl of the test compound to be analysed (as a solution in DMSO, suitable concentrations e.g. 1 nM to 30 μM) is pipetted into 24 μl of activated enzyme (final concentration e.g. 0.5 nM) in reaction buffer (50 mM Tris/HCl pH 7.5, 10 mM CaCl2, 150 mM NaCl, 0.05% Brij®-35) in a white 384-hole microtiter plate (MTP). The enzymatic reaction is started by adding the intramolecularly quenched Mca-Pro-Leu-Gly-Leu-Dpa(Dnp)-Ala-Arg-NH2 substrate (final concentration e.g. 10 μM; R&D Systems, ES-001), so as to result in a total test volume of 50 μl. The course of the MMP-7 reaction is measured by measuring the fluorescence intensity (excitation 320 nm, emission 410 nm) over a suitable period of time (e.g. over 120 min at a temperature of 32° C.).
# MMP-9 = target: T3, MMP-9 (Homo sapiens, UniProt P14780); assay: In vitro MMP-9 inhibition test; details: human MMP-9
# T3 construct: purchased R&D Systems 911-MP
# T3 sequence (P14780 107-707 limits assumed): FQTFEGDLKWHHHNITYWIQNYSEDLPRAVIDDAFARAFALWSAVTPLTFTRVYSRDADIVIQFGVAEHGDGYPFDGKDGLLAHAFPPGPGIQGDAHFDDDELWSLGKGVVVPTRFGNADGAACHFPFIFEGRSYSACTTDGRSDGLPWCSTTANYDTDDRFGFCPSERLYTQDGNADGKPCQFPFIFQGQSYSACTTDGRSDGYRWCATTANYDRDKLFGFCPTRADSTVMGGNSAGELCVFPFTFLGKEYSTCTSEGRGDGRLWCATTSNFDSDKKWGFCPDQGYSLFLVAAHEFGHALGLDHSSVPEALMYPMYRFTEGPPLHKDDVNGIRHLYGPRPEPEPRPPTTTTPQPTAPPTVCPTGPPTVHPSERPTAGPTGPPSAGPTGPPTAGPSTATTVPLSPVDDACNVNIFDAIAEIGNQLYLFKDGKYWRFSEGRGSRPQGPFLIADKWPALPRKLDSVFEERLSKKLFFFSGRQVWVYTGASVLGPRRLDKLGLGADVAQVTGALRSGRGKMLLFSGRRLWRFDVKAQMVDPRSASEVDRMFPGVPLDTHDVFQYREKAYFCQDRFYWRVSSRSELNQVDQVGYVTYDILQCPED
# From the text: as §1
# as §2, with “MMP-9 (R&D” for “MMP-7 (from R&D”, “911-MP)” for “907-MP)”, “0.1” for “0.5”, “MMP-9” for “MMP-7”
# MMP-14 = target: T4, MMP-14 (Homo sapiens, UniProt P50281); assay: In vitro MMP-14 inhibition test; details: human MMP-14
# T4 construct: purchased R&D Systems 918-MP
# From the text: as §1
# Recombinant MMP-14 (R&D Systems, 918-MP) is enzymatically activated in accordance with the manufacturer's instructions using recombinant furin (R&D Systems, 1503-SE). 1 μl of the test compound to be analysed (as a solution in DMSO, suitable concentrations e.g. 1 nM to 30 μM) is pipetted into 24 μl of activated enzyme (final concentration e.g. 0.5 nM) in reaction buffer (50 mM Tris/HCl pH 7.5, 10 mM CaCl2, 150 mM NaCl, 0.05% Brij®-35) in a white 384-hole microtiter plate (MTP). The enzymatic reaction is started by adding the intramolecularly quenched Mca-Lys-Pro-Leu-Gly-Leu-Dpa(Dnp)-Ala-Arg-NH2 substrate (final concentration e.g. 5 μM; R&D Systems, ES-010), so as to result in a total test volume of 50 μl. The course of the MMP-14 reaction is measured by measuring the fluorescence intensity (excitation 320 nm, emission 410 nm) over a suitable period of time (e.g. over 120 min at a temperature of 32° C.).
SMILES,pIC50 [1],pIC50 (MMP-7),pIC50 (MMP-9),pIC50 (MMP-14)
"CCCCCCCOc1ccc2c(C(=O)CC(CCn3nnc4ccccc4c3=O)C(=O)O)coc2c1 (racemic) [Example 101, (+/−)-4-[6-(Heptyloxy)-1-benzofur-3-yl]-4-oxo-2-[2-(4-oxo-1,2,3-benzotriazin-3(4H)-yl)ethyl]butanoic acid]",9.28,< 4.40,6.38,< 4.40
"O=C(CC(CCn1nnc2ccccc2c1=O)C(=O)O)c1cc2ccc(OCC3CC3)cc2s1 (racemic) [Example 111, (+/−)-4-[6-(Cyclopropylmethoxy)-1-benzothiophen-2-yl]-4-oxo-2-[2-(4-oxo-1,2,3-benzotriazin-3(4H)-yl)ethyl]butanoic acid]",8.48,5.39,5.96,5.22
"CCCCCOc1ccc2cc(C(=O)CC(CCn3nnc4ccccc4c3=O)C(=O)O)sc2c1 (racemic) [Example 118, (+/−)-4-Oxo-2-[2-(4-oxo-1,2,3-benzotriazin-3(4H)-yl)ethyl]-4-[6-(pentyloxy)-1-benzothiophen-2-yl]butanoic acid]",8.57,4.52,5.92,4.72
"O=C(CC(CCn1nnc2ccccc2c1=O)C(=O)O)c1noc2cc(OCc3ccc(F)cc3)ccc12 (racemic) [Example 136, (+/−)-4-{6-[(4-Fluorobenzyl)oxy]-1,2-benzoxazol-3-yl}-4-oxo-2-[2-(4-oxo-1,2,3-benzotriazin-3(4H)-yl)ethyl]butanoic acid]",9.20,< 4.40,6.72,5.31
"O=C(CC(CCn1nnc2ccccc2c1=O)C(=O)O)c1noc2cc(OCCc3ccccc3)ccc12 (racemic) [Example 144, (+/−)-4-Oxo-2-[2-(4-oxo-1,2,3-benzotriazin-3(4H)-yl)ethyl]-4-[6-(2-phenylethoxy)-1,2-benzoxazol-3-yl]butanoic acid]",8.85,< 4.40,6.12,5.60
"O=C(CC(CCn1nnc2ccccc2c1=O)C(=O)O)c1noc2cc(OCC3CC3)ccc12 (racemic) [Example 150, (+/−)-4-[6-(Cyclopropylmethoxy)-1,2-benzoxazol-3-yl]-4-oxo-2-[2-(4-oxo-1,2,3-benzotriazin-3(4H)-yl)ethyl]butanoic acid]",8.42,4.54,6.19,6.05
"O=C(CC(CCn1nnc2ccccc2c1=O)C(=O)O)c1noc2cc(OCC3CCCCC3)ccc12 (racemic) [Example 153, (+/−)-4-[6-(Cyclohexylmethoxy)-1,2-benzoxazol-3-yl]-4-oxo-2-[2-(4-oxo-1,2,3-benzotriazin-3(4H)-yl)ethyl]butanoic acid]",8.89,< 4.40,6.35,5.26
"O=C(CC(CCn1nnc2ccc(C(F)(F)F)cc2c1=O)C(=O)O)c1noc2cc(OCC3CCOCC3)ccc12 (racemic) [Example 155, (+/−)-4-Oxo-2-{2-[4-oxo-6-(trifluoromethyl)-1,2,3-benzotriazin-3(4H)-yl]ethyl}-4-[6-(tetrahydro-2H-pyran-4-ylmethoxy)-1,2-benzoxazol-3-yl]butanoic acid]",9.41,4.62,5.55,< 4.40
"O=C(CC(CCn1nnc2ccccc2c1=O)C(=O)O)c1onc2cc(OCc3ccccc3)ccc12 (racemic) [Example 156, (+/−)-4-[6-(Benzyloxy)-2,1-benzoxazol-3-yl]-4-oxo-2-[2-(4-oxo-1,2,3-benzotriazin-3(4H)-yl)ethyl]butanoic acid]",8.62,< 4.40,6.77,5.03
"O=C(O)[C@H]1[C@H](Cn2nnc3ccc(C(F)(F)F)cc3c2=O)CC[C@@H]1C(=O)c1cc2cc(OCCc3ccccc3)ccc2o1 (racemic) [Example 157, (+/−)-(1RS,2SR,5RS)-2-{[4-Oxo-6-(trifluoromethyl)-1,2,3-benzotriazin-3(4H)-yl]methyl}-5-{[5-(2-phenylethoxy)-1-benzofur-2-yl]carbonyl}cyclopentanecarboxylic acid (racemate)]",10.26,6.80,6.72,6.15
"CCCCCOc1ccc2c(C(=O)CC(CCn3nnc4ccccc4c3=O)C(=O)O)coc2c1 (single isomer, unassigned) [Example 91, 4-Oxo-2-[2-(4-oxo-1,2,3-benzotriazin-3(4H)-yl)ethyl]-4-[6-(pentyloxy)-1-benzofur-3-yl]butanoic acid]",9.64,< 4.40,7.39,5.40

# Now from value to compound:
pIC50 [1],pIC50 (MMP-7),pIC50 (MMP-9),pIC50 (MMP-14),SMILES
9.52,5.28,6.62,5.68,"O=C(CC(CCn1nnc2ccccc2c1=O)C(=O)O)c1cc2ccc(OCCc3ccccc3)cc2s1 (racemic) [Example 114, (+/−)-4-Oxo-2-[2-(4-oxo-1,2,3-benzotriazin-3(4H)-yl)ethyl]-4-[6-(2-phenylethoxy)-1-benzothiophen-2-yl]butanoic acid]"
9.55,< 4.40,7.37,5.47,"CCCCCOc1ccc2c(C(=O)CC(CCn3nnc4ccccc4c3=O)C(=O)O)noc2c1 (racemic) [Example 140, (+/−)-4-Oxo-2-[2-(4-oxo-1,2,3-benzotriazin-3(4H)-yl)ethyl]-4-[6-(pentyloxy)-1,2-benzoxazol-3-yl]butanoic acid]"
9.15,< 4.40,6.77,5.40,"O=C(CC(CCn1nnc2ccccc2c1=O)C(=O)O)c1noc2cc(OCc3ccccc3)ccc12 (racemic) [Example 145, (+/−)-4-[6-(Benzyloxy)-1,2-benzoxazol-3-yl]-4-oxo-2-[2-(4-oxo-1,2,3-benzotriazin-3(4H)-yl)ethyl]butanoic acid]"
8.74,< 4.40,6.04,5.07,"O=C(CC(CCn1nnc2ccccc2c1=O)C(=O)O)c1noc2cc(OCc3cccnc3)ccc12 (racemic) [Example 148, (+/−)-4-Oxo-2-[2-(4-oxo-1,2,3-benzotriazin-3(4H)-yl)ethyl]-4-[6-(pyridin-3-ylmethoxy)-1,2-benzoxazol-3-yl]butanoic acid]"
9.12,4.74,6.60,4.59,"O=C(CC(CCn1nnc2ccc(C(F)(F)F)cc2c1=O)C(=O)O)c1noc2cc(OCc3ccccc3)ccc12 (racemic) [Example 154, (+/−)-4-[6-(Benzyloxy)-1,2-benzoxazol-3-yl]-4-oxo-2-{2-[4-oxo-6-(trifluoromethyl)-1,2,3-benzotriazin-3(4H)-yl]ethyl}butanoic acid]"
